According to patent publication US20080293712A1, “Benzo[C][2,7]Naphtyridine Derivatives, Methods of Making Thereof and Methods of Use Thereof” (WYETH, priority 2007, published 2008):
Like-named read-outs stand apart in the source and are kept apart here.

How the values were obtained:
Type in all cases: biochemical
PDK-1 = target: T1, PDK-1 (Homo sapiens, UniProt O15530); experiment: PDK-1 kinase inhibition ELISA assay (phosphorylation of His6-tagged SGK1 S422D by PDK-1)
T1 sequence (O15530 1-556): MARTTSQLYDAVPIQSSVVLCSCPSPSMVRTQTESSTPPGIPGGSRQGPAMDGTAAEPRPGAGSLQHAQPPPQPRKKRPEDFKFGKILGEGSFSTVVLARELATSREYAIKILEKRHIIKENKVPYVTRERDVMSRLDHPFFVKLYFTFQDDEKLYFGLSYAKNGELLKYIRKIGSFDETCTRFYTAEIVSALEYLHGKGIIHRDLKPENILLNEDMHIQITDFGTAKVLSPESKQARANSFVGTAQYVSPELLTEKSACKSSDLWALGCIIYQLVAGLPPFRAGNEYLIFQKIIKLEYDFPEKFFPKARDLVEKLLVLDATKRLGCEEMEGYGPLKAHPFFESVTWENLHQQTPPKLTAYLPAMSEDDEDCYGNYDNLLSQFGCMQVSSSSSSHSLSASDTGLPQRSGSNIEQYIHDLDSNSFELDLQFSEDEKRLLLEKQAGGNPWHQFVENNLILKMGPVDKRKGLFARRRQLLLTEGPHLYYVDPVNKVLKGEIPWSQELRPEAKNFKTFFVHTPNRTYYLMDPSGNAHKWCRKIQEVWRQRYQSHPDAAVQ

PKA = PKA (Homo sapiens, UniProt P17612); experiment: PKA kinase inhibition, Z'-LYTE FRET assay
Text: Z′-Lyte™ assay is an in vitro FRET-based assay that utilizes differential sensitivity of phosphorylated and non-phosphorylated peptides to proteolytic cleavage. The peptide substrate (also available from Invitrogen for each of PKA, Akt1 and S6K) is labeled with two different fluorophores, a fluorescence donor at one end of the peptide and a fluorescence acceptor at the other end of the peptide. In the primary kinase reaction, the kinase phosphorylates the peptide substrate in the presence of ATP. In the secondary reaction, a site-specific protease recognizes and cleaves non-phosphorylated peptides, but not phosphorylated peptides. Cleavage disrupts FRET between the donor and acceptor fluorophores on the peptide, whereas uncleaved phosphorylated peptides maintain FRET. Based on a formula that uses the ratio of donor emission (at 460 nm) to acceptor emission (at 535 nM) after excitation of the donor fluorophore at 400 nm, the extent of phosphorylation of the peptide substrates is calculated.

S6K = S6K (Homo sapiens, UniProt P23443); experiment: S6K kinase inhibition, Z'-LYTE FRET assay; conditions: 100 μM ATP
Text: The ability of illustrative Benzo[c][2,7]naphthyridine Derivatives to inhibit PKA, Akt1, S6K in vitro can be determined using a Fluorescence Resonance Energy Transfer (FRET) assay, such as a Z′-LYTE™ Kinase Assay Platform, commercially available from Invitrogen (c.f. Rodems et al., ASSAY Drug Devel. Technol. 1:9-19 (2002) and Zhang et al., J. Biomol. Screen. 4:67-73 (1999)). Z′-Lyte™ assay is an in vitro FRET-based assay that utilizes differential sensitivity of phosphorylated and non-phosphorylated peptides to proteolytic cleavage. The peptide substrate (also available from Invitrogen for each of PKA, Akt1 and S6K) is labeled with two different fluorophores, a fluorescence donor at one end of the peptide and a fluorescence acceptor at the other end of the peptide. In the primary kinase reaction, the kinase phosphorylates the peptide substrate in the presence of ATP. In the secondary reaction, a site-specific protease recognizes and cleaves non-phosphorylated peptides, but not phosphorylated peptides. Cleavage disrupts FRET between the donor and acceptor fluorophores on the peptide, whereas uncleaved phosphorylated peptides maintain FRET. Based on a formula that uses the ratio of donor emission (at 460 nm) to acceptor emission (at […]) after excitation of the donor fluorophore at 400 nm, the extent of phosphorylation of the peptide substrates is calculated. IC50 values of illustrative Benzo[c][2,7]naphthyridine Derivatives, shown in Table 12, are calculated using LSW Data Analysis package add-in for Excel (Microsoft).

[1] = PDK-1 ELISA, Table 11, read-out: Average IC50

Chain of S6K (P23443 whole entry): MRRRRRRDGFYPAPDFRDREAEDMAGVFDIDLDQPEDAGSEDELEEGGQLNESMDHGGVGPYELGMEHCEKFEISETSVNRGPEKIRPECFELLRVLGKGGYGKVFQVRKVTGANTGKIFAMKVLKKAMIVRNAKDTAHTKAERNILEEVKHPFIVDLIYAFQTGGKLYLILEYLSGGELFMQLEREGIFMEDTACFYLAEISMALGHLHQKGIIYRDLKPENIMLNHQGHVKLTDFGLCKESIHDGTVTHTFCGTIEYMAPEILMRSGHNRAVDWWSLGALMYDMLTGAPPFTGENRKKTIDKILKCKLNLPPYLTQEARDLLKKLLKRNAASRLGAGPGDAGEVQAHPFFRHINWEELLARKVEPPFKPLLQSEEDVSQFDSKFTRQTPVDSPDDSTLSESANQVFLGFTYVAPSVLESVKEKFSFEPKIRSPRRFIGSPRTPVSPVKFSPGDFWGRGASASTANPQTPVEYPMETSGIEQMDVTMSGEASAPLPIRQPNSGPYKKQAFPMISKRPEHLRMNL

## COc1cc2ncc3c(N)nc(-c4cncc(OC[C@@H](N)Cc5ccc(Cl)c(Cl)c5)c4)cc3c2cc1OC [Ib-44, 2-(5-{[(2S)-2-amino-3-(3,4-dichlorophenyl)propyl]oxy}pyridin-3-yl)-8,9-dimethoxybenzo[c]-2,7-naphthyridin-4-amine]
PDK-1; [1]
  IC50: 6 nM
PKA; 20 μM ATP
  IC50: < 32 nM
S6K
  IC50: 19 nM

## COc1cc2ncc3c(N)nc(-c4cncc(OC[C@@H](N)CN5CCc6ccccc65)c4)cc3c2cc1OC [Ib-46, 2-(5-{[(2S)-2-amino-3-(2,3-dihydro-1H-indol-1-yl)propyl]oxy}pyridin-3-yl)-8,9-dimethoxybenzo[c]-2,7-naphthyridin-4-amine]
PDK-1; [1]
  IC50: 8 nM
PKA; 20 μM ATP
  IC50: < 32 nM
PKA; 100 μM ATP
  IC50: 179 nM
S6K
  IC50: 65 nM

## COc1cc2ncc3c(N)nc(-c4cncc(OC[C@@H](N)CN5CCNC(=O)C5)c4)cc3c2cc1OC [Ib-37, 4-((2S)-2-amino-3-{[5-(4-amino-8,9-dimethoxybenzo[c]-2,7-naphthyridin-2-yl)pyridin-3-yl]oxy}propyl)piperazin-2-one]
PDK-1; [1]
  IC50: 18 nM
PKA; 20 μM ATP
  IC50: 850 nM
PKA; 100 μM ATP
  IC50: > 2000 nM
S6K
  IC50: 523 to 821 nM

## COc1cc2ncc3c(N)nc(-c4cncc(C#CCN(C)Cc5ccccc5)c4)cc3c2cc1OC [Ib-32, 2-(5-{3-[Benzyl(methyl)amino]prop-1-yn-1-yl}pyridin-3-yl)-8,9-dimethoxybenzo[c]-2,7-naphthyridin-4-amine]
PDK-1; [1]
  IC50: 850 nM
PKA; 100 μM ATP
  IC50: > 2000 nM
S6K
  IC50: > 2000 nM

## COc1cc2ncc3c(N)nc(-c4cncc(O[C@H]5CCCNC5)c4)cc3c2cc1OC [Ib-39, 8,9-dimethoxy-2-{5-[(3S)-piperidin-3-yloxy]pyridin-3-yl}benzo[c]-2,7-naphthyridin-4-amine]
PDK-1; [1]
  IC50: 84 nM
PKA; 20 μM ATP
  IC50: > 4000 nM
PKA; 100 μM ATP
  IC50: > 2000 nM
S6K
  IC50: ≥ 1700 nM

## COc1cc2ncc3c(N)nc(-c4cncc(OC[C@@H](N)Cc5ccc(F)cc5)c4)cc3c2cc1OCc1ccccc1 [Ia-1, 2-(5-{[(2S)-2-Amino-3-(4-fluorophenyl)propyl]oxy}pyridin-3-yl)-9-(benzyloxy)-8-methoxybenzo[c]-2,7-naphthyridin-4-amine]
PDK-1; [1]
  IC50: > 100 nM
PKA; 100 μM ATP
  IC50: > 2000 nM
S6K
  IC50: > 2000 nM

## COc1cc2ncc3c(N)nc(-c4cncc(OC[C@@H](N)CN5CCOCC5)c4)cc3c2cc1OC [Ib-45, 2-(5-{[(2S)-2-amino-3-morpholin-4-ylpropyl]oxy}pyridin-3-yl)-8,9-dimethoxybenzo[c]-2,7-naphthyridin-4-amine]
PDK-1; [1]
  IC50: 25 nM
PKA; 20 μM ATP
  IC50: 650 nM
PKA; 100 μM ATP
  IC50: > 2000 nM
S6K
  IC50: 725 nM

## COCCN(C[C@H](N)COc1cncc(-c2cc3c(cnc4cc(OC)c(OC)cc43)c(N)n2)c1)c1ccccc1 [Ib-34, (2S)-3-{[5-(4-amino-8,9-dimethoxybenzo[c]-2,7-naphthyridin-2-yl)pyridin-3-yl]oxy}-N1-(2-methoxyethyl)-N1-phenylpropane-1,2-diamine]
PDK-1; [1]
  IC50: 6 nM
PKA; 20 μM ATP
  IC50: < 32 nM
PKA; 100 μM ATP
  IC50: 116 nM
S6K
  IC50: 61 to 130 nM

## COc1cc2ncc3c(N)nc(-c4cncc(OC5CCNCC5)c4)cc3c2cc1OC [Ib-40, 8,9-Dimethoxy-2-[5-(piperidin-4-yloxy)pyridin-3-yl]benzo[c]-2,7-naphthyridin-4-amine]
PDK-1; [1]
  IC50: 117 nM
PKA; 20 μM ATP
  IC50: > 4000 nM
PKA; 100 μM ATP
  IC50: > 2000 nM
S6K
  IC50: > 2000 nM

## COc1cc2ncc3c(N)nc(-c4cncc(OC[C@@H](N)Cc5ccc(NC(=O)OCc6ccccc6)cc5)c4)cc3c2cc1OC [Ib-23]
PDK-1; [1]
  IC50: > 100 nM
PKA; 100 μM ATP
  IC50: > 2000 nM
S6K
  IC50: > 2000 nM

## COc1cc2ncc3c(N)nc(-c4cncc(OC[C@@H](C)N)c4)cc3c2cc1OC [Ib-30, 2-(5-{[(2R)-2-aminopropyl]oxy}pyridin-3-yl)-8,9-dimethoxybenzo[c]-2,7-naphthyridin-4-amine]
PDK-1; [1]
  IC50: 2 nM
S6K
  IC50: 97 nM

## COc1cc2ncc3c(N)nc(-c4cncc(OC[C@@H](N)CNc5cccc(F)c5)c4)cc3c2cc1OC [Ib-36, (2S)-3-{[5-(4-amino-8,9-dimethoxybenzo[c]-2,7-naphthyridin-2-yl)pyridin-3-yl]oxy}-N1-(3-fluorophenyl)propane-1,2-diamine]
PDK-1; [1]
  IC50: 4 nM
PKA; 20 μM ATP
  IC50: < 32 nM
PKA; 100 μM ATP
  IC50: 223 nM
S6K
  IC50: 30 to 133 nM

## COc1cc2ncc3c(N)nc(-c4cncc(OC[C@@H](N)Cc5ccc(F)cc5)c4)cc3c2cc1OC [Ib-41, 2-(5-{[(2S)-2-amino-3-(4-fluorophenyl)propyl]oxy}pyridin-3-yl)-8,9-dimethoxybenzo[c]-2,7-naphthyridin-4-amine]
PDK-1; [1]
  IC50: 3 nM
PKA; 20 μM ATP
  IC50: < 32 nM
PKA; 100 μM ATP
  IC50: 183 nM
S6K
  IC50: 21 to 102 nM

## COc1cc2ncc3c(N)nc(-c4cncc(OC[C@@H](N)Cc5cccc(C(F)(F)F)c5)c4)cc3c2cc1OC [Ib-24, 2-[5-({(2S)-2-amino-3-[3-(trifluoromethyl)phenyl]propyl}oxy)pyridin-3-yl]-8,9-dimethoxybenzo[c]-2,7-naphthyridin-4-amine]
PDK-1; [1]
  IC50: 13 nM
PKA; 100 μM ATP
  IC50: 198 to 219 nM
S6K
  IC50: 169 to 194 nM

## COc1cc2ncc3c(N)nc(-c4cncc(OC[C@@H](N)CN(C)Cc5ccccc5)c4)cc3c2cc1OC [Ib-27, (2S)-3-{[5-(4-amino-8,9-dimethoxybenzo[c]-2,7-naphthyridin-2-yl)pyridin-3-yl]oxy}-N1-benzyl-N1-methylpropane-1,2-diamine]
PDK-1; [1]
  IC50: 6 nM
PKA; 100 μM ATP
  IC50: 110 to 217 nM
S6K
  IC50: 37 to 43 nM

## COc1cc2ncc3c(N)nc(-c4cncc(OC[C@H](N)Cc5cccc(C(F)(F)F)c5)c4)cc3c2cc1OC [Ib-28, 2-[5-({(2R)-2-amino-3-[3-(trifluoromethyl)phenyl]propyl}oxy)pyridin-3-yl]-8,9-dimethoxybenzo[c]-2,7-naphthyridin-4-amine]
PDK-1; [1]
  IC50: 21 nM
S6K
  IC50: 763 nM

## Nc1nc(-c2cncc(OC[C@@H](N)Cc3ccccc3)c2)cc2c1cnc1ccccc12 [Ia-3, 2-(5-{[(2S)-2-Amino-3-phenylpropyl]oxy}pyridin-3-yl)benzo[c]-2,7-naphthyridin-4-amine]
PDK-1; [1]
  IC50: 104 nM
PKA; 20 μM ATP
  IC50: 300 nM
PKA; 100 μM ATP
  IC50: 911 nM
S6K
  IC50: 1200 nM

## COc1cc2ncc3c(N)nc(-c4cncc(O[C@@H]5CCCNC5)c4)cc3c2cc1OC [Ib-33, 8,9-dimethoxy-2-{5-[(3R)-piperidin-3-yloxy]pyridin-3-yl}benzo[c]-2,7-naphthyridin-4-amine]
PDK-1; [1]
  IC50: 8 nM
PKA; 100 μM ATP
  IC50: 368 nM
S6K
  IC50: 138 nM

## Nc1nc(-c2cncc(OC[C@@H](N)Cc3ccccc3)c2)cc2c1cnc1cc(/C=C/CCN3CCCC3)ccc12 [Ia-4, 2-(5-{[(2S)-2-amino-3-phenylpropyl]oxy}pyridin-3-yl)-8-[(1E)-4-pyrrolidin-1-ylbut-1-en-1-yl]benzo[c]-2,7-naphthyridin-4-amine]
PDK-1; [1]
  IC50: 27 nM
PKA; 20 μM ATP
  IC50: < 32 nM
PKA; 100 μM ATP
  IC50: 70 nM
S6K
  IC50: 89 nM

## COCCOc1cc2ncc3c(N)nc(-c4cccnc4)cc3c2cc1OC [Ia-2, 9-Methoxy-8-(2-methoxyethoxy)-2-pyridin-3-ylbenzo[c]-2,7-naphthyridin-4-amine]
PDK-1
  IC50: 43 nM
PKA; 100 μM ATP
  IC50: > 2000 nM
S6K
  IC50: 542 nM

## COc1cc2ncc3c(N)nc(-c4cncc(OC[C@@H]5CN(c6cccc(F)c6)C(=O)N5)c4)cc3c2cc1OC [Ib-35, (4S)-4-({[5-(4-amino-8,9-dimethoxybenzo[c]-2,7-naphthyridin-2-yl)pyridin-3-yl]oxy}methyl)-1-(3-fluorophenyl)imidazolidin-2-one]
PDK-1; [1]
  IC50: 206 nM
PKA; 20 μM ATP
  IC50: > 4000 nM
PKA; 100 μM ATP
  IC50: > 2000 nM
S6K
  IC50: ≥ 1740 nM
